A short description of data set [1]: wn = mass fraction of the nth substance listed. To be noted: 313.15 K, 88.4 kPa, Liquid; for viscosity: Capillary tube (Ostwald / Ubbelohde) method; for mass density: Pycnometric method.
Data set [2] in a line: refractive index (Na D-line) (dimensionless); wn = mass fraction of the nth substance listed. To be noted: 313.15 K, 88.4 kPa, Liquid, Standard Abbe refractometry.

The text below walks through data of the NIST ThermoML archive (doi:10.1021/acs.jced.5b00992).

± gives the expanded uncertainty stated by the source.

`O=S(=O)([O-])[O-].[Na+].[Na+]` [sodium sulfate] + O: in data set [1] (w1 = 0.3237), the viscosity is 2.871 ± 0.29 mPa·s and the mass density was found to be 1317.6 ± 3.7 kg/m3. In data set [2] (w1 = 0.3237), the refractive index is reported as 1.3774 ± 0.0006.

As to `O=S(=O)([O-])[O-].[K+].[K+]` [potassium sulfate] + O, in data set [1] (w1 = 0.129), the viscosity is on record as 0.8181 ± 0.082 mPa·s and the mass density amounted to 1097.5 ± 2.3 kg/m3. Besides, the refractive index in data set [2] (w1 = 0.129) is given as 1.3466 ± 0.0006.

In general, viscosity refers to the internal friction of a fluid under shear. As usually defined, the mass density is mass per unit of volume. Usually refractive index stands for the speed of light in vacuum divided by its phase velocity in the sample.
